Reference: EP4692072A1, “PHOTOCHROMIC COMPOUND, PROPARGYL ALCOHOL COMPOUND, CURABLE COMPOSITION, OPTICAL ARTICLE, LENS, AND SPECTACLES” (TOKUYAMA CORPORATION, priority 2023, dated 2024)

Tests used:
Type in all cases: physicochemical
[1] = Accelerated deterioration (xenon weather meter X25, 120 hours) of photochromic cured product prepared by kneading method; conditions: 1 mm cured product, 0.106 mmol per 100 g monomer, A120/A0×100 after 120 hours xenon weather meter
Protocol: (§1) • [1] Maximum Absorption Wavelength (λmax): The maximum absorption wavelength after color development, measured using a spectrophotometer (instantaneous multichannel photodetector MCPD3000) manufactured by Otsuka Electronics Co., Ltd. was used as an indicator for the color tone during the color development. • [2] 23°C Color Optical Density (A23): A difference between an absorbancy measured after light irradiation at 23°C for 300 seconds {ε(300)} and an absorbancy without light irradiation ε(0) at the maximum absorption wavelength was used as an indicator for the color optical density. […] 23°C color fading half-life [τ1/2 (sec.)]: A time required for the absorbancy of the sample at the maximum absorption wavelength to decrease to 1/2 of {ε(300)-ε(0)} when the light irradiation was terminated after the light irradiation at 23°C for 300 seconds, was used as an indicator for the color fading speed. The shorter this time, the higher the color fading speed. • [4] Residual rate (A120/A0×100): The obtained photochromic plastic lens was subjected to accelerated deterioration using a xenon weather meter X25 manufactured by Suga Test Instruments Co., Ltd. for 120 hours. Subsequently, the color optical density was evaluated before and after the test, then a color optical density before the test (A0) and a color optical density after the test (A120) were measured, and a ratio (A120/A0) was defined as a residual rate. The residual rate was used as an indicator for a color developing durability. The higher the residual rate, the higher the color developing durability. The results of Examples 26, 50, and Comparative Examples 1 to 8 are summarized in Table 1, and the results of Examples 27 to 49 are summarized in Tables 2 and 3.
(§2) First, the photochromic compound obtained in Example 1, additives, and a polymerizable compound were mixed to obtain a curable composition.
(§3) As the polymerizable compound, a combination of the following polymerizable monomers was used. • 1,3-bis(isocyanatomethyl)cyclohexane: 36.7 parts by mass Pentaerythritol tetrakis(3-mercaptopropionate): 39.4 parts by mass • Polyoxyethylene polyoxypropylene lauryl ether (Wonder Surf 140 manufactured by Aoki Oil Industrial Co., Ltd.): 17.4 parts by mass • 1-decanethiol: 2.8 parts by mass • RX-1 adjusted according to the method described in Patent Document 13: 3.8 parts by mass
(§4) Note that the photochromic compound was added to the curable composition so that the amount of the photochromic compound was 0.106 mmol based on 100 g of the total amount of the polymerizable monomer. The following additives were used: Dimethyltin dichloride • : 0.05 part by mass • Irganox 245: 0.1 part by mass • 2-ethylhexyl 4-methoxycinnamate: 0.6 part by mass
(§5) The prepared curable composition was thoroughly defoamed, then injected into a glass mold having a 1 mm gap, and polymerized by cast polymerization. The polymerization was carried out in an air furnace while gradually raising the temperature from 27°C to 120°C over 18 hours. After the polymerization, the cured product was removed from the glass mold to obtain a photochromic cured product having a thickness of 1 mm. The obtained photochromic cured product was evaluated in the same manner as in Example 26.
(§6) (Examples 85 to 99, and Comparative Example 14 to 18) Photochromic cured products were prepared using photochromic compounds presented in Tables 6 and 7 in the same manner as in Example 84. The results of Examples 84 and 85 and Comparative Examples 14 to 18 are summarized in Table 6, and the results of Examples 86 to 99 are summarized in Table 7.

[2] = Accelerated deterioration (xenon weather meter X25, 120 hours) of photochromic laminate prepared by coating method; conditions: 0.25 mmol per 100 g monomers, A120/A0×100 after 120 hours xenon weather meter
Procedure, shortened: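 Photochromic compound at 0.25 mmol per 100 g of methacrylate monomers, spin-coated as a 40 µm layer on a primed 1.60-index thiourethane lens, then light-cured and heated at 110°C for 1 h. Color optical density at λmax (23°C, 300 s irradiation) measured before (A0) and after 120 h xenon exposure (A120). Residual rate = A120/A0×100.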

[3] = Photochromic properties of photochromic cured product prepared by kneading method; conditions: 0.106 mmol per 100 g monomer; for A23: 1 mm cured product, 23°C color optical density ε(300)-ε(0); for Maximum absorption wavelength: 1 mm thiourethane cured product, after color development
Protocol: as §1, §2, §3, §4, §5, §6

Compound: CCCCC1(CCCC)c2cc(-c3ccc(OC(C)C)cc3)ccc2-c2c1c1c(c3cc(OC)ccc23)OC(c2ccc(N(C)c3ccccc3)cc2)(c2ccc(OC)c(F)c2)C=C1 (centres unmarked) [Example 21]
- Residual rate [1]: 68%
- Residual rate [2]: 60%
- A23 [3]: 0.62 -
- A23 ([3]; listed as Formula (83)): 1.25 -
- Maximum absorption wavelength [3]: 490 nm
- Maximum absorption wavelength ([3]; listed as Formula (83)): 616 nm

Compound: COCCOCCOCCOCCC1(CCOCCOCCOCCOC)c2cc(C(F)(F)F)ccc2-c2c1c1c(c3cc(OC)c(OC)cc23)OC(c2ccc(OC)cc2)(c2ccc(N(C)c3ccccc3)cc2)C=C1 (centres unmarked) [Example 51]
- Residual rate [1]: 68%
- Residual rate [2]: 60%
- A23 [3]: 0.46 -
- A23 ([3]; listed as Formula (89)): 0.45 -
- Maximum absorption wavelength [3]: 486 nm
- Maximum absorption wavelength ([3]; listed as Formula (89)): 612 nm

Compound: CCCC1(CCC)c2ccccc2-c2c1c1c(c3cc(OC)c(-c4ccc(OC)cc4OC)cc23)OC(c2ccc(C)cc2)(c2ccc(N(C)c3ccccc3)cc2)C=C1 (centres unmarked) [Example 19]
- Residual rate [1]: 73%
- Residual rate [2]: 64%
- A23 [3]: 0.87 -
- A23 ([3]; listed as Formula (80)): 1.15 -
- Maximum absorption wavelength [3]: 496 nm
- Maximum absorption wavelength ([3]; listed as Formula (80)): 610 nm

Compound: CCCC1(CCC)c2ccccc2-c2c1c1c(c3cc(OC)c(-c4ccc(OC)cc4OC)cc23)OC(c2ccc(N(C)c3ccccc3)cc2)(c2ccc(OC)c(F)c2)C=C1 (centres unmarked) [Example 7]
- Residual rate [1]: 68%
- Residual rate [2]: 61%
- A23 [3]: 0.75 -
- A23 ([3]; listed as Formula (55)): 0.99 -
- Maximum absorption wavelength [3]: 499 nm
- Maximum absorption wavelength ([3]; listed as Formula (55)): 610 nm

Compound: CCCc1ccc(C2(c3ccc(N(C)c4ccccc4)cc3)C=Cc3c4c(c5cc(Sc6c(C)cccc6C)c(OC)cc5c3O2)-c2ccccc2C42CC(C)(C)CC(C)(C)C2)cc1 (centres unmarked) [Example 5]
- Residual rate [1]: 75%
- Residual rate [2]: 68%
- A23 [3]: 0.56 -
- A23 ([3]; listed as Formula (51)): 0.69 -
- Maximum absorption wavelength [3]: 511 nm
- Maximum absorption wavelength ([3]; listed as Formula (51)): 598 nm

Compound: COCCOCCC1(CCOCCOC)c2cc(C)ccc2-c2c1c1c(c3cc(C)ccc23)OC(c2ccc(N(C)c3ccc(F)cc3)cc2)(c2ccc(OC)c(OC)c2)C=C1 (centres unmarked) [Example 8]
- Residual rate [1]: 68%
- Residual rate [2]: 60%
- A23 [3]: 0.51 -
- A23 ([3]; listed as Formula (57)): 1.24 -
- Maximum absorption wavelength [3]: 476 nm
- Maximum absorption wavelength ([3]; listed as Formula (57)): 604 nm

Compound: CCCC1(CCC)c2cc(OC(F)(F)F)ccc2-c2c1c1c(c3cc(OC)c(Sc4c(C)cccc4C)cc23)OC(c2ccc(N(C)c3ccccc3)cc2)(c2ccc(OC)c(OC)c2)C=C1 (centres unmarked) [Example 57]
- Residual rate [1]: 72%
- Residual rate [2]: 65%
- A23 [3]: 0.86 -
- A23 ([3]; listed as Formula (110)): 0.88 -
- Maximum absorption wavelength [3]: 496 nm
- Maximum absorption wavelength ([3]; listed as Formula (110)): 625 nm

Compound: CCCCN(c1ccccc1)c1ccc(C2(c3ccc(C)cc3)C=Cc3c4c(c5cc(N6CCOCC6)c(OC)cc5c3O2)-c2ccccc2C4(CC)CC)cc1 (centres unmarked) [Example 10]
- Residual rate [1]: 68%
- Residual rate ([1]; listed as Formula (62)): 70%
- Residual rate [2]: 60%
- Residual rate ([2]; listed as Formula (62)): 64%
- A23 [3]: 1.41 -
- A23 ([3]; listed as Formula (62)): 1.09 -
- Maximum absorption wavelength [3]: 519 nm
- Maximum absorption wavelength ([3]; listed as Formula (62)): 600 nm
